From patent publication US8785692B2, “Substituted phenylamidines and the use thereof as fungicides” (priority 2007, dated 2014)
Like-named read-outs stand apart in the source and are kept apart here.

Experiments:
[1] = logP (neutral / acidic, pH 2.3)
[2] = test system: Sphaerotheca fuliginea; assay: Sphaerotheca test (cucumber) / protective; format: in vivo; details: Podosphaera fuliginea, 168 h, read-out: efficacy
Experimental: Sphaerotheca Test (Cucumber)/Protective
Solvent: 49 parts by weight of N,N-dimethylformamide
Emulsifier: 1 part by weight of alkylaryl polyglycol ether
To produce a suitable preparation of active compound, 1 part by weight of active compound is mixed with the stated amounts of solvent and emulsifier, and the concentrate is diluted with water to the desired concentration.
To test for protective activity, young cucumber plants are sprayed with the active compound preparation at the stated application rate. 1 day after the treatment, the plants are inoculated with a spore suspension of Sphaerotheca fuliginea. The plants are then placed in a greenhouse at 70% relative atmospheric humidity and a temperature of 23° C.
Evaluation is carried out 7 days after the inoculation. 0% means an efficacy which corresponds to that of the control, whereas an efficacy of 100% means that no infection is observed.

[3] = cucumber, protective, 500 ppm active compound, evaluation 7 days after inoculation

Compound | logP ([1]; pH 2.3) | logP [1] | pest or weed control at 500 ppm [2, 3] [%] | pest or weed control at 500 ppm [2] [%] | logP acidic ([1]; acidic) | logP neutral ([1]; neutral)
Cc1cc(C=NOCc2ccccc2)c(C)cc1N [4-(Benzyloxyiminomethyl)-2,5-dimethylaniline] | 4.22 | – | – | – | – | –
Cc1cc(C=NOC(C)C)c(C)cc1N [4-(Isopropoxyiminomethyl)-2,5-dimethylaniline] | 2.77 | – | – | – | – | –
CCO/N=C(\C)c1cc(C)c(N=CN(C)CC)cc1C [Compound 23, N-ethyl-N′-{4-[(1E)—N-ethoxyethanimidoyl]-2,5-dimethylphenyl}-N-methylimidoformamide] | 1.6 | 3.86 | – | – | – | –
Cc1cc(C=O)c(C)cc1N [4-Amino-2,5-dimethylbenzaldehyde] | 1.34 | – | – | – | – | –
CCN(C)C=Nc1cc(C)c(/C(C)=N/OCc2nc(-c3ccccc3)cs2)cc1C [Compound 21, N′-(2,5-dimethyl-4-{(1E)-N-[(4-phenyl-1,3-thiazol-2-yl)meth-oxy]ethanimidoyl}phenyl)-N-ethyl-N-methylimidoformamide] | 2.3 | 5.1 | ≥ 70 | – | – | –
CCN(C)C=Nc1cc(C)c(/C=N/OC(C)(C)C)cc1C [Compound 39, N′-{4-[(E)-(tert-butoxyimino)methyl]-2,5-dimethylphenyl}-N-ethyl-N-methylimidoformamide] | 2.11 | 4.98 | – | ≥ 70 | – | –
CC#CCO/N=C(\C)c1cc(C)c(N=CN(C)CC)cc1C [Compound 16, N′-{4-[(1E)-N-(but-2-yn-1-yloxy)ethanimidoyl]-2,5-dimethylphenyl}-N-ethyl-N-methylimidoformamide] | 1.72 | 3.91 | – | ≥ 70 | – | –
CCN(C)C=Nc1cc(C)c(/C(C)=N/OCC[Si](C)(C)C)cc1C [Compound 44, N′-(2,5-dimethyl-4-{(1E)-N-[2-(trimethylsilyl)ethoxy]ethanimidoyl}phenyl)-N-ethyl-N-methylimidoformamide] | 2.76 | 6.21 | – | – | – | –
CCN(C)C=Nc1cc(C)c(/C(C)=N/OCc2ccc(Cl)c(Cl)c2)cc1C [Compound 30, N′-(4-{(1E)-N-[(3,4-dichlorobenzyl)oxy]-ethanimidoyl}-2,5-dimethylphenyl)-N-ethyl-N-methylimidoformamide] | 2.71 | 5.79 | – | ≥ 70 | – | –
N-(2,5-dimethyl-4-{(E)-[1-phenylethoxy]ethanimidoyl}phenyl)-N-ethyl-N-methylimidoformamide [Compound 27] | – | – | – | – | 2.39 | 5.09
CCN(C)C=Nc1cc(C)c(/C=N/OCCC(C)(C)C)cc1C [Compound 48, N′-(4-{(E)-[(3,3-dimethylbutoxy)imino]methyl}-2,5-dimethylphenyl)-N-ethyl-N-methylimidoformamide] | 2.3 | 5.89 | – | – | – | –
CCN(C)C=Nc1cc(C)c(/C(C)=N/OCC=C(C)C)cc1C [Compound 33, N′-(2,5-dimethyl-4-{(1E)-N-[(3-methylbut-2-en-1-yl)oxy]ethanimidoyl}phenyl)-N-ethyl-N-methylimidoformamide] | 2.24 | 4.86 | – | ≥ 70 | – | –
CCN(C)C=Nc1cc(C)c(/C(C)=N/OC(C)c2ccc(Cl)cc2)cc1C (stereo not drawn) [Compound 38, N′-(4-{(1E)-N-[1-(4-chlorophenyl)ethoxy]ethanimidoyl}-2,5-dimethylphenyl)-N-ethyl-N-methylimidoformamide] | 2.46 | 5.67 | – | – | – | –
CCN(C)C=Nc1cc(C)c(/C=N/OCc2ccc3c(c2)OCOC3)cc1C [Compound 4, N′-(4-{(E)-[(4H-1,3-benzodioxin-7-ylmethoxy)imino]methyl}-2,5-dimethylphenyl)-N-ethyl-N-methylimidoformamide] | 2.02 | 4.71 | – | – | – | –
CCN(C)C=Nc1cc(C)c(/C(C)=N/OCc2cccc(Oc3ccccc3)c2)cc1C [Compound 22, N′-(2,5-dimethyl-4-{(1E)-N-[(3-phenoxybenzyl)oxy]ethanimidoyl}phenyl)-N-ethyl-N-methylimidoformamide] | 2.69 | 5.77 | ≥ 70 | – | – | –
CCN(C)C=Nc1cc(C)c(/C(C)=N/OC(C)(C)C)cc1C [Compound 9, N-ethyl-N′-{4-[(1E)-N-tert-butoxyethanimidoyl]-2,5-dimethylphenyl}-N-methylimidoformamide] | 2.19 | 5.17 | – | – | – | –
CCN(C)C=Nc1cc(C)c(/C(C)=N/OCC(C)C)cc1C [Compound 13, N-ethyl-N′-{4-[(1E)-N-isobutoxyethanimidoyl]-2,5-dimethylphenyl}-N-methylimidoformamide] | 2.22 | 4.98 | – | – | – | –
CCN(C)C=Nc1cc(C)c(/C=N/OCC2CC2)cc1C [Compound 47, N′-(4-{(E)-[(cyclopropylmethoxy)imino]methyl}-2,5-dimethylphenyl)-N-ethyl-N-methylimidoformamide] | 1.67 | 3.95 | – | – | – | –

Now from value to compound, other results behind:

logP ([1]; pH 2.3) | logP [1] | Compound | pest or weed control at 500 ppm [2, 3] [%] | pest or weed control at 500 ppm [2] [%] | logP acidic ([1]; acidic) | logP neutral ([1]; neutral)
1.43 | 3.05 | CCN(C)C=Nc1cc(C)c(/C(C)=N/OCOCCOC)cc1C [Compound 18, N′-{2,5-dimethyl-4-[(1E)-1-methyl-3,5,8-trioxa-2-azanon-1-en-1-yl]phenyl}-N-ethyl-N-methylimidoformamide] | – | – | – | –
1.38 | 3.33 | CCN(C)C=Nc1cc(C)c(/C(C)=N/OC)cc1C [Compound 24, N-ethyl-N′-{4-[(1E)-N-methoxyethanimidoyl]-2,5-dimethylphenyl}-N-methylimidoformamide] | – | – | – | –
2.21 | – | CCN(C)C=Nc1cc(C)c(/C(C)=N/Oc2ccccc2)cc1C [Compound 11, N′-{2,5-dimethyl-4-[(1E)-N-phenoxyethanimidoyl]-phenyl}-N-ethyl-N-methylimidoformamide] | ≥ 70 | – | – | –
1.92 | 4.42 | CCN(C)C=Nc1cc(C)c(/C(C)=N/OC(C)C)cc1C [Compound 10, N-ethyl-N′-{4-[(1E)-N-isopropoxyethanimidoyl]-2,5-dimethylphenyl}-N-methylimidoformamide] | – | – | – | –
1.8 | 4 | C#CC(C)O/N=C(\C)c1cc(C)c(N=CN(C)CC)cc1C (stereo not drawn) [Compound 15, N′-(2,5-dimethyl-4-{(1E)-N-[(1-methylprop-2-yn-1-yl)oxy]ethanimidoyl}phenyl)-N-ethyl-N-methylimidoformamide] | ≥ 70 | – | – | –
1.79 | 4.75 | CCN(C)C=Nc1cc(C)c(/C(C)=N/CCCC(C)(C)C)cc1C [Compound 46, N′-{4-[(1E)-N-(4,4-dimethylpentyl)ethanimidoyl]-2,5-dimethylphenyl}-N-ethyl-N-methylimido-formamide] | – | – | – | –
1.9 | 4.43 | CCCO/N=C(\C)c1cc(C)c(N=CN(C)CC)cc1C [Compound 37, N′-{4-[(1E)-N-(n-propoxy)ethanimidoyl]-2,5-dimethylphenyl}-N-ethyl-N-methylimidoformamide] | ≥ 70 | – | – | –
1.67 | 3.95 | CCN(C)C=Nc1cc(C)c(/C(C)=N/OCc2ccc(Cl)nc2)cc1C [Compound 32, N′-(4-{(1E)-N-[(6-chloropyridin-3-yl)methoxy]ethanimidoyl}-2,5-dimethylphenyl)-N-ethyl-N-methylimidoformamide] | ≥ 70 | – | – | –
3.05 | 6.26 | CCN(C)C=Nc1cc(C)c(/C(C)=N/OCc2ccc(C(C)(C)C)cc2)cc1C [Compound 12, N′-(4-{(1E)-N-[(4-tert-butylbenzyl)oxy]ethanimidoyl}-2,5-dimethylphenyl)-N-ethyl-N-methylimidoformamide] | ≥ 70 | – | – | –
1.72 | 4.02 | C=CCO/N=C(\C)c1cc(C)c(N=CN(C)CC)cc1C [Compound 35, N′-{4-[(1E)-N-(allyloxy)ethanimidoyl]-2,5-dimethylphenyl}-N-ethyl-N-methylimidoformamide] | – | – | – | –
2.56 | 5.55 | CCN(C)C=Nc1cc(C)c(/C(C)=N/OCCc2ccc(Cl)cc2)cc1C [Compound 25, N′-(4-{(1E)-N-[2-(4-chloro-phenyl)ethoxy]ethanimidoyl}-2,5-dimethylphenyl)-N-ethyl-N-methylimidoformamide] | ≥ 70 | – | – | –
2.2 | 5.24 | CCN(C)C=Nc1cc(C)c(/C(C)=N/OC2CCCC2)cc1C [Compound 14, N′-{4-[(1E)-N-(cyclopentyloxy)ethanimidoyl]-2,5-dimethylphenyl}-N-ethyl-N-methylimidoformamide] | ≥ 70 | – | – | –
3.75 | 5.51 | CCN(C)C=Nc1cc(C)c(/C(C)=N/OCc2c(Cl)cccc2Cl)cc1C [Compound 29, N′-(4-{(1E)-N-[(2,6-dichlorobenzyl)oxy]ethanimidoyl}-2,5-dimethylphenyl)-N-ethyl-N-methylimidoformamide] | ≥ 70 | – | – | –
2.07 | 4.65 | CCN(C)C=Nc1cc(C)c(/C(C)=N/OCc2ccccc2)cc1C [Compound 31, N′-(4-{(1E)-N—[benzyloxy]-ethanimidoyl}-2,5-dimethylphenyl)-N-ethyl-N-methylimidoformamide] | ≥ 70 | – | – | –
2.32 | 5.2 | CCN(C)C=Nc1cc(C)c(/C(C)=N/OC/C=C/c2ccccc2)cc1C [Compound 19, N′-{2,5-dimethyl-4-[(1E)-N-{[(2E)-3-phenylprop-2-en-1-yl]oxy}ethanimidoyl]phenyl}-N-ethyl-N-methylimidoformamide] | – | – | – | –
1.91 | – | CCN(C)C=Nc1cc(C)c(/C(C)=N/Nc2ccccc2F)cc1C [Compound 45, N-ethyl-N′-(4-{(1E)-1-[2-(2-fluorophenyl)hydrazinylidene]ethyl}-2,5-dimethylphenyl)-N-methylimidoformamide] | – | – | – | –
